This note sets out measurements from PMC9192638, “Compact IF2 allows initiator tRNA accommodation into the P site and gates the ribosome to elongation” (Nature Communications, 2022).

The target in experiment [1] is T1, IF2 (initiation factor 2) (Pseudomonas aeruginosa, UniProt Q9HV55).
T1 construct: gene infB; full-length; N-terminal 6xHis-SMT3 tag removed by Ulp1; expressed in E. coli BL21(DE3) Star; compact model residues 337-835
Put plainly: cryo-EM structure. Type of experiment: binding. The following applies: pH 7.6, 10 mM MgCl2.

For experiment [2], the target named is T2, initiation factor 2 (IF2) from Pseudomonas aeruginosa (Pseudomonas aeruginosa PAO1, UniProt Q9HV55 1-840).
T2 construct: Translation initiation factor IF2, Pseudomonas aeruginosa PAO1; residues modelled in the maps: 248-332 (N2 sub-domain region, extended IF2) and 337-835 (compact IF2); Co-purifies with GDP; GDPCP was added to the complex, so the sample held IF2-GDP (compact) and IF2-GDPCP (extended); also called PaeIF2; IF2-GDP; source: E. coli BL21 (DE3) Star, purified (HisTrap, Ulp1 cleavage, reverse HisTrap, …)
Put plainly: cryo-EM structure; rotated 70S-IC with extended IF2-GDPCP (structures II-A and II-B); 2 uM 70 S ribosome, 25 uM mRNA, 10 uM fMet-tRNA, 30 uM IF2, 2 mM GDPCP; 10 mM Hepes 7.6, 60 mM NH4Cl, 15 mM KCl, 10 mM MgCl2. The note with it: both partners purified.

T1 sequence (Q9HV55 whole entry, the tested form may be a part): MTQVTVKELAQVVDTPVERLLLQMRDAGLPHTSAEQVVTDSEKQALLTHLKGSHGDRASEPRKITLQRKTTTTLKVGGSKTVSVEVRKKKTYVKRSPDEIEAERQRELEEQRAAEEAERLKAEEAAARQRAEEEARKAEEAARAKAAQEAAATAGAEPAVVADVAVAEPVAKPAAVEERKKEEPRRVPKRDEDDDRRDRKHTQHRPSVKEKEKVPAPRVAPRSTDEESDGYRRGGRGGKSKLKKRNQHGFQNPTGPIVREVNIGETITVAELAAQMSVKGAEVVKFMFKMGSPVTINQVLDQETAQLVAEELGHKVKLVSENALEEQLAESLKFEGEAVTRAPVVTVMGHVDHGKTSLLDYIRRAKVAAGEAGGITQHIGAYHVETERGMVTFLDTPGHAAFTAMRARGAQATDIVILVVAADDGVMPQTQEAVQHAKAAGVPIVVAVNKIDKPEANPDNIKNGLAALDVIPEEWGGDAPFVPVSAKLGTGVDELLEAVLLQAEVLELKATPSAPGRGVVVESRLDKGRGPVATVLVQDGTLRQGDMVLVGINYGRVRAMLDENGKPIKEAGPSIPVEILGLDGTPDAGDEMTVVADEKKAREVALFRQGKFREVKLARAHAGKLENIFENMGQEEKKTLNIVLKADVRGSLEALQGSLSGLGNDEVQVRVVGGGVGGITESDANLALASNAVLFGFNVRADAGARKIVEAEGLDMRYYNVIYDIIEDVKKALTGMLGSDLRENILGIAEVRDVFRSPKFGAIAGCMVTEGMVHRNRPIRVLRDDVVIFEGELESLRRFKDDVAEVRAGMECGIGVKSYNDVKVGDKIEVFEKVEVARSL
T2 sequence (Q9HV55 whole entry): as the sequence (Q9HV55 whole entry, the tested form may be a part) above

With `Nc1nc2c(ncn2[C@@H]2O[C@H](COP(=O)(O)OP(=O)(O)O)[C@@H](O)[C@H]2O)c(=O)[nH]1` [GDP], in experiment [1] (compact IF2 on non-rotated 70S ribosome initiation complex with mRNA and fMet-tRNA, GDP co-purified with IF2, G-domain nucleotide site), the cryo-EM structure entry is on record as “visualizes the GDP nucleotide bound in the G-domain”.

For the molecule `Nc1nc2c(ncn2[C@@H]2O[C@H](COP(=O)(O)OP(=O)(O)CP(=O)(O)O)[C@@H](O)[C@H]2O)c(=O)[nH]1` [GDPCP, β,γ-methyleneguanosine 5’-triphosphate], in experiment [1] (extended IF2 on rotated 70S ribosome initiation complex with mRNA and fMet-tRNA, 2 mM GDPCP added, G-domain nucleotide site with Mg2+), the cryo-EM structure entry was “well-defined density for extended IF2 and GDPCP in the G-domain”.

B1: ribosomal protein uL16 (natural protein, UniProt Q9HWE2 1-137, looked up)
chain: MLQPKRTKFRKQMTGHNRGLAHRGSKVSFGEYALKATSRGRLTARQIESARRALTRHVKRGGKIWIRVFPDKPVTKKPLEVRMGKGKGGVEYWVAQIQPGKVLYEIEGVSEELAREAFALAAAKLPLATSFVKRTVM
notes: 50 S ribosomal protein uL16, Pseudomonas aeruginosa PAO1, as part of the 70 S ribosome; Stood in the assay as a subunit of the whole 70 S ribosome with mRNA and fMet-tRNA; source: endogenous, in 70 S ribosomes purified from P. aeruginosa PAO1 (sucrose cushion, sucrose density gradients)
With B1, the binding result in experiment [2] is “binds”.

B2: ribosomal protein uL11 (natural protein, UniProt Q9HWC5 1-143, looked up)
chain: MAKKIQAYIKLQVKAGQANPSPPVGPALGQHGVNIMEFCKAFNAKTQGQEPGLPTPVIITVYSDRSFTFETKSTPAAVLLKKAAGITSGSARPNSQKVGTVTRAQLEEIAKTKQADLTAADLDAAVRTIAGSARSMGLNVEGV
notes: 50 S ribosomal protein uL11, Pseudomonas aeruginosa PAO1, as part of the 70 S ribosome; Stood in the assay as a subunit of the whole 70 S ribosome with mRNA and fMet-tRNA; also called uL11-NTD; source: endogenous, in 70 S ribosomes purified from P. aeruginosa PAO1 (sucrose cushion, sucrose density gradients)
Take B2: the binding result in experiment [2] is listed as “binds”.
